Laboratory results published in patent publication US12479852B2, “Compounds, compositions, and methods for protein degradation” (DANA-FARBER CANCER INSTITUTE, INC., priority 2019, dated 2025).

Tested on: synovial sarcoma cell lines
Experiment: testing against a panel of synovial sarcoma cell lines (antiproliferation)
Assay type: cell-based
Conditions: FIG. 1

O=C(CCOCCOCCOCCNc1cccc2c1C(=O)N(C1CCC(=O)NC1=O)C2=O)NCCc1ccc(N2C[C@@H]3C[C@H]2CN3/C=C/C(=O)c2ccccc2O)cc1 (stereo partly drawn) [Compound E1, 3-(2-(2-(2-((2-(2,6-dioxopiperidin-3-yl)-1,3-dioxoisoindolin-4-yl)amino)ethoxy)ethoxy)ethoxy)-N-(4-((1S,4S)-5-((E)-3-(2-hydroxyphenyl)-3-oxoprop-1-en-1-yl)-2,5-diazabicyclo[2.2.1]heptan-2-yl)phenethyl)propanamide]
antiproliferation effect against synovial sarcoma lines: antiproliferation effect
